Experimental data published in PubChem BioAssay AID194 (DTP/NCI, 2004).
Results filed as inconclusive are left out.

Tested on: BDF1 mice, B16 melanoma s.c., survival/tumor T/C
Assay: NCI In Vivo Anticancer Drug Screen. Data for tumor model B16 Melanoma (subcutaneous) in B6D2F1 (BDF1) mice
Protocol: The antitumor activity of compounds was measured in mice bearing transplantable tumors. Survival or tumor size were measured and the results are expressed as the measurement made in the treated group (T) divided by the measurement made in the vehicle treated control group (C). The tumor model used in this assay is B16 Melanoma (subcutaneous) in B6D2F1 (BDF1) mice

[1] = endpoint: median survival time, dose: 2.5 mg/kg/injection, schedule: Q01DX009 (ip), vehicle: saline, higher = longer survival
[2] = endpoint: median survival time, dose: 100.0 mg/kg/injection, schedule: Q01DX009 (ip), vehicle: saline with Tween-80, higher = longer survival

SMILES: CC(C)[C@](O)(C(=O)OCC1=CC[N+]2([O-])CC[C@@H](O)[C@@H]12)[C@H](C)O (stereo partly specified)
- T/C (endpoint: median survival time, dose: 50.0 mg/kg/injection, schedule: Q01DX009 (ip), vehicle: water, higher = longer survival): 95 % of control
- T/C (endpoint: median survival time, dose: 100.0 mg/kg/injection, schedule: Q01DX009 (ip), vehicle: water, higher = longer survival): 106 % of control
- T/C (endpoint: median survival time, dose: 200.0 mg/kg/injection, schedule: Q01DX009 (ip), vehicle: water, higher = longer survival): 103 % of control

SMILES: CC1(C)CC(O)(C(Cl)c2ccccc2)C(=O)c2ccccc21 (stereo unspecified)
- T/C (endpoint: median survival time, dose: 88.0 mg/kg/injection, schedule: Q01DX009 (ip), vehicle: distilled water + Tween-80, higher = longer survival): 96 % of control
- T/C (endpoint: median survival time, dose: 133.0 mg/kg/injection, schedule: Q01DX009 (ip), vehicle: distilled water + Tween-80, higher = longer survival): 97 % of control
- T/C (endpoint: median survival time, dose: 200.0 mg/kg/injection, schedule: Q01DX009 (ip), vehicle: distilled water + Tween-80, higher = longer survival): 93 % of control
- T/C (endpoint: median survival time, dose: 300.0 mg/kg/injection, schedule: Q01DX009 (ip), vehicle: distilled water + Tween-80, higher = longer survival): 89 % of control
- T/C (endpoint: median tumor weight (est.), dose: 133.0 mg/kg/injection, schedule: Q01DX009 (ip), vehicle: distilled water + Tween-80, higher = larger tumour): 71 % of control
- T/C (endpoint: median tumor weight (est.), dose: 200.0 mg/kg/injection, schedule: Q01DX009 (ip), vehicle: distilled water + Tween-80, higher = larger tumour): 106 % of control
- T/C (endpoint: median tumor weight (est.), dose: 300.0 mg/kg/injection, schedule: Q01DX009 (ip), vehicle: distilled water + Tween-80, higher = larger tumour): 91 % of control

SMILES: CC1(C)OCC(CO)(Nc2nc(N3CC3)nc(N3CC3)n2)CO1
- T/C (endpoint: median survival time, dose: 1.7 mg/kg/injection, schedule: Q01DX009 (ip), vehicle: saline, higher = longer survival): 112 % of control
- T/C [1]: 104 % of control
- T/C (endpoint: median survival time, dose: 3.8 mg/kg/injection, schedule: Q01DX009 (ip), vehicle: saline, higher = longer survival): 88 % of control

SMILES: Cc1cc(OCc2nc(N)nc(N)c2-c2ccc(Cl)c(Cl)c2)ccc1NS(=O)(=O)c1cccc(S(=O)(=O)F)c1
- T/C (endpoint: median survival time, dose: 117.0 mg/kg/injection, schedule: Q04DX003 (ip), vehicle: saline, higher = longer survival): 95 % of control
- T/C (endpoint: median survival time, dose: 176.0 mg/kg/injection, schedule: Q04DX003 (ip), vehicle: saline, higher = longer survival): 118 % of control

SMILES: CN[C@H]1CCc2cc(OC)c(OC)c(OC)c2-c2ccc(OC)c(=O)cc21
- T/C (endpoint: median survival time, dose: 1.25 mg/kg/injection, schedule: Q01DX009 (ip), vehicle: saline, higher = longer survival): 109 % of control
- T/C [1]: 95 % of control
- T/C (endpoint: median survival time, dose: 10.0 mg/kg/injection, schedule: Q01DX009 (ip), vehicle: saline, higher = longer survival): 111 % of control

SMILES: O=c1n(CC2CO2)c(=O)n(CC2CO2)c(=O)n1CC1CO1 (stereo unspecified)
- T/C (endpoint: median survival time, dose: 20.0 mg/kg/injection, schedule: Q01DX011 (ip), vehicle: saline, higher = longer survival): 109 % of control
- T/C (endpoint: median survival time, dose: 40.0 mg/kg/injection, schedule: Q01DX011 (ip), vehicle: saline, higher = longer survival): 155 % of control

SMILES: Nc1n[nH]c(N)n1
- T/C [2]: 93 % of control
- T/C (endpoint: median survival time, dose: 400.0 mg/kg/injection, schedule: Q01DX009 (ip), vehicle: saline with Tween-80, higher = longer survival): 97 % of control
- T/C (endpoint: median survival time, dose: 800.0 mg/kg/injection, schedule: Q01DX009 (ip), vehicle: saline with Tween-80, higher = longer survival): 97 % of control
- T/C (endpoint: median tumor weight (est.), dose: 100.0 mg/kg/injection, schedule: Q01DX009 (ip), vehicle: saline with Tween-80, higher = larger tumour): 100 % of control
- T/C (endpoint: median tumor weight (est.), dose: 800.0 mg/kg/injection, schedule: Q01DX009 (ip), vehicle: saline with Tween-80, higher = larger tumour): 154 % of control

SMILES: O=C(O)CCNSc1ccccc1[N+](=O)[O-]
- T/C (endpoint: median survival time, dose: 12.5 mg/kg/injection, schedule: Q01DX009 (ip), vehicle: saline with Tween-80, higher = longer survival): 105 % of control
- T/C (endpoint: median survival time, dose: 25.0 mg/kg/injection, schedule: Q01DX009 (ip), vehicle: saline with Tween-80, higher = longer survival): 109 % of control
- T/C (endpoint: median survival time, dose: 50.0 mg/kg/injection, schedule: Q01DX009 (ip), vehicle: saline with Tween-80, higher = longer survival): 114 % of control
- T/C [2]: 100 % of control

SMILES: CCCCC[C@H](O)/C=C/[C@@H]1[C@@H](C/C=C\CCCC(=O)O)[C@@H](O)C[C@H]1O
- T/C (endpoint: median survival time, dose: 2.5 mg/kg/injection, schedule: Q04DX002 (ip), vehicle: saline with Tween-80, higher = longer survival): 89 % of control
- T/C (endpoint: median survival time, dose: 5.0 mg/kg/injection, schedule: Q04DX002 (ip), vehicle: saline with Tween-80, higher = longer survival): 110 % of control
- T/C (endpoint: median survival time, dose: 10.0 mg/kg/injection, schedule: Q04DX002 (ip), vehicle: saline with Tween-80, higher = longer survival): 106 % of control
- T/C (endpoint: median survival time, dose: 20.0 mg/kg/injection, schedule: Q04DX002 (ip), vehicle: saline with Tween-80, higher = longer survival): 93 % of control
- T/C (endpoint: median survival time, dose: 40.0 mg/kg/injection, schedule: Q04DX002 (ip), vehicle: saline with Tween-80, higher = longer survival): 114 % of control
- T/C (endpoint: median survival time, dose: 80.0 mg/kg/injection, schedule: Q04DX002 (ip), vehicle: saline with Tween-80, higher = longer survival): 86 % of control
- T/C (endpoint: median survival time, dose: 160.0 mg/kg/injection, schedule: Q04DX002 (ip), vehicle: saline with Tween-80, higher = longer survival): 90 % of control
